Results published in patent US20250179047A1, “5-[7-(3,4-DIHYDRO-1H-ISOQUINOLINE-2-CARBONYL)-1,2,3,4 TETRAHYDROISOQUINOLIN-6-YL]-1H-PYRROLE-3-CARBOXAMIDE DERIVATIVES, PHARMACEUTICAL COMPOSITIONS CONTAINING THEM AND THEIR USES AS PRO-APOPTOTIC AGENTS” (LES LABORATOIRES SERVIER, priority 2022, published 2025).

Tests used:
[1] = target: BCL2 WT (Homo sapiens (Human), UniProt P10415); assay: TR-FRET competitive binding assay, BCL2 WT; settings: Ki determined from IC50, read-out: TR_FRET EKI_Bcl2 WT
Summary of the method: (§1)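 Ki derived from IC50 (11-point dilution, 520/495 nm emission ratio) for displacing a fluorescein-labelled PUMA peptide (2 or 20 nM). Target was 0.5 nM E. coli-expressed Halo-tagged BCL2 (1-207) or BCLXL (2-196), terbium-labelled on Halo. Incubation 2 h at 23°C in pH 7.5 Hepes with 150 mM NaCl and 5% DMSO.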

[2] = target: BCLXL WT (Homo sapiens (Human), UniProt Q07817); assay: TR-FRET competitive binding assay, BCLXL WT; settings: for Ki: BCLXL WT, Ki determined from IC50, read-out: TR_FRET EKI BclxL; for TR_FRET EKI BCLxL/WT selectivty ratio: ratio Ki BCLxL / Ki BCL2 WT
Sequence of BCLXL WT (Q07817 other isoform, or with tags, fused parts or gaps): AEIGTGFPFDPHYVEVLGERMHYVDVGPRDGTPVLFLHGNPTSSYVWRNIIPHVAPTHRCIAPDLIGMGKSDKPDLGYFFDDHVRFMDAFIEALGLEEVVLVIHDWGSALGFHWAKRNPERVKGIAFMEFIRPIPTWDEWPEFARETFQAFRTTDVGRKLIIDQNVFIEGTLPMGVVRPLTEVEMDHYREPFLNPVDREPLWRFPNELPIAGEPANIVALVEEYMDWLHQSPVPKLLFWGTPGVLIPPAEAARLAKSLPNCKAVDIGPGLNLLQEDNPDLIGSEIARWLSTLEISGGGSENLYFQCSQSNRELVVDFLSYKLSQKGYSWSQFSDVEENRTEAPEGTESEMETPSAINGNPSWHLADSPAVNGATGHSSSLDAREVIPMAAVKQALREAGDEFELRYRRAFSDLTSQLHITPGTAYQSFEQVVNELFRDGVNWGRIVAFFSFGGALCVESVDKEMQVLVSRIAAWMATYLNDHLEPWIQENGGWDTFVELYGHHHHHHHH
Summary of the method: as §1

[3] = tested on: KMS-12-PE Bcl-2 WT; assay: In vitro cytotoxicity CellTiter-Glo 48 h, KMS-12-PE Bcl-2 WT; type: cell-based; settings: Homo sapiens, KMS-12-PE, C50 = concentration needed to reach 50% of the cellular viability
Summary of the method: (§2)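 Bcl-2 WT- and G101V-expressing KMS-12-PE cells; 48 h treatment at 37 °C, 5% CO2; CellTiter-Glo ATP luminescence; C50 from 11-point curves.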

[4] = tested on: KMS-12-PE Bcl-2 G101V; assay: In vitro cytotoxicity CellTiter-Glo 48 h, KMS-12-PE Bcl-2 G101V; type: cell-based; settings: for Ratio (G101V/WT): C50 KMS-12-PE Bcl-2 G101V over C50 KMS-12-PE Bcl-2 WT; for IC50: Homo sapiens, KMS-12-PE, 48 h, CellTiter-Glo, C50 = concentration needed to reach 50% of the cellular viability
Summary of the method: as §2

[5] = target: BCL2 D103Y (Homo sapiens, UniProt P10415, D103Y); assay: TR-FRET competitive binding assay, BCL2 D103Y; settings: Ki determined from IC50, read-out: TR_FRET EKI_Bcl2 D103Y
Summary of the method: as §1

[6] = tested on: BCL2 G101V; assay: TR-FRET competitive binding assay, BCL2 G101V; set-up: species or system human; settings: ratio Ki BCL2 G101V / Ki BCL2 WT
Summary of the method: as §1

[7] = target: BCL2 G101V (Homo sapiens, UniProt P10415, G101V); assay: TR-FRET competitive binding assay, BCL2 G101V; settings: BCL2 G101V; Ki determined from IC50; read-out: TR_FRET EKI_Bcl2 G101V
Summary of the method: as §1

Compound | Ki [1] | Ki [2] | TR_FRET EKI BCLxL/WT selectivty ratio [2] | Ki [5] | TR_FRET EKI G101V/WT selectivty ratio [6] | Ki [7] | IC50 [3] | Ratio (G101V/WT) [4] | IC50 [4]
Cc1c(C(=O)N(c2ccc(O)cc2)c2ccc3c(cnn3C)c2)cc(-c2cc3c(cc2C(=O)N2Cc4ccccc4C[C@H]2C)CN(C(=O)Cc2ccc(OCCN4CCOCC4)cc2)CC3)n1C [Example 90, N-(4-hydroxyphenyl)-1,2-dimethyl-5-(7-{[(3R)-3-methyl-3,4-dihydro-1H-isoquinolin-2-yl]carbonyl}-2-(2-{4-[2-(morpholin-4-yl)ethoxy]phenyl}acetyl)-3,4-dihydro-1H-isoquinolin-6-yl)-N-(1-methylindazol-5-yl)pyrrole-3-carboxamide] | 0.25 nM | 4.5 nM | 18.0 | 0.88 nM | 3.4 | 0.8 nM | 0.0111 µM | 5.92 | 0.0657 µM
Cc1c(N(C(=O)c2cc(-c3cc4c(cc3C(=O)N3Cc5ccccc5C[C@H]3CN3CCCCC3)CN(C(=O)Cc3ccc(OCCN5CCOCC5)cc3F)CC4)n(C)c2C)c2ccccc2)cc(C#N)n1C [Example 92, N-(5-cyano-1,2-dimethyl-pyrrol-3-yl)-5-[2-[2-[2-fluoro-4-(2-morpholinoethoxy)phenyl]acetyl]-7-[(3S)-3-(1-piperidylmethyl)-3,4-dihydro-1H-isoquinoline-2-carbonyl]-3,4-dihydro-1H-isoquinolin-6-yl]-1,2-dimethyl-N-phenyl-pyrrole-3-carboxamide] | 0.03 nM | 8.5 nM | 303.6 | 0.11 nM | 30.7 | 0.9 nM | 0.0085 µM | 11.7 | 0.0974 µM
Cc1c(N(C(=O)c2cc(-c3cc4c(cc3C(=O)N3Cc5ccccc5C[C@H]3C)CN(C(=O)Cc3ccc(OCCN5CCOC6(CC6)C5)cc3)CC4)n(C)c2C)c2ccc(O)cc2)cc(C#N)n1C [Example 93, N-(5-cyano-1,2-dimethyl-1H-pyrrol-3-yl)-N-(4-hydroxyphenyl)-1,2-dimethyl-5-{7-[(3R)-3-methyl-1,2,3,4-tetrahydroisoquinoline-2-carbonyl]-2-{2-[4-(2-{4-oxa-7-azaspiro[2.5]octan-7-yl}ethoxy)phenyl]acetyl}-1,2,3,4-tetrahydroisoquinolin-6-yl}-1H-pyrrole-3-carboxamide] | 0.19 nM | 2.4 nM | 12.6 | 0.34 nM | 5.5 | 1.1 nM | 0.0053 µM | 3.45 | 0.0182 µM
Cc1c(C(=O)N(c2ccc(O)cc2)c2cc(C#N)n(C(F)F)c2C)cc(-c2cc3c(cc2C(=O)N2Cc4ccccc4C[C@H]2C)CN(C(=O)Cc2ccc(OCCN4CCOCC4)cc2F)CC3)n1C [Example 94, N-[5-cyano-1-(difluoromethyl)-2-methylpyrrol-3-yl]-5-[2-(2-{2-fluoro-4-[2-(morpholin-4-yl)ethoxy]phenyl}acetyl)-7-{[(3R)-3-methyl-3,4-dihydro-1H-isoquinolin-2-yl]carbonyl}-3,4-dihydro-1H-isoquinolin-6-yl]-N-(4-hydroxyphenyl)-1,2-dimethylpyrrole-3-carboxamide] | 0.22 nM | 3.3 nM | 15.0 | 0.66 nM | 5.0 | 1.1 nM | 0.0032 µM | 3.31 | 0.0107 µM
Cc1c(C(=O)N(c2ccc(O)cc2)c2cc(C#N)n(C(F)F)c2C)cc(-c2cc3c(cc2C(=O)N2Cc4ccccc4C[C@H]2C)CN(C(=O)Cc2ccc(OCCN4CCOCC4)cc2)CC3)n1C [Example 95, N-[5-cyano-1-(difluoromethyl)-2-methylpyrrol-3-yl]-N-(4-hydroxyphenyl)-1,2-dimethyl-5-(7-{[(3R)-3-methyl-3,4-dihydro-1H-isoquinolin-2-yl]carbonyl}-2-(2-{4-[2-(morpholin-4-yl)ethoxy]phenyl}acetyl)-3,4-dihydro-1H-isoquinolin-6-yl)pyrrole-3-carboxamide] | 0.18 nM | 3.9 nM | 21.7 | 0.46 nM | 3.2 | 0.6 nM | 0.0048 µM | 4.11 | 0.0196 µM

Continued, in another order:

Ki [1] | Ki [2] | TR_FRET EKI BCLxL/WT selectivty ratio [2] | Ki [5] | TR_FRET EKI G101V/WT selectivty ratio [6] | Ki [7] | Compound | IC50 [3] | Ratio (G101V/WT) [4] | IC50 [4]
0.05 nM | 2.8 nM | 52.8 | 0.14 nM | 5.2 | 0.3 nM | Cc1c(N(C(=O)c2cc(-c3cc4c(cc3C(=O)N3Cc5ccccc5C[C@H]3CN3CCCC3)CN(C(=O)Cc3ccc(OCCC5CCOCC5)cc3)CC4)n(C)c2C)c2ccc(O)cc2)cc(C#N)n1C [Example 99, N-(5-cyano-1,2-dimethylpyrrol-3-yl)-N-(4-hydroxyphenyl)-1,2-dimethyl-5-[2-(2-{4-[2-(oxan-4-yl)ethoxy]phenyl}acetyl)-7-{[(3S)-3-(pyrrolidin-1-ylmethyl)-3,4-dihydro-1H-isoquinolin-2-yl]carbonyl}-3,4-dihydro-1H-isoquinolin-6-yl]pyrrole-3-carboxamide] | 0.0105 µM | 7.27 | 0.0763 µM
0.02 nM | 2.3 nM | 127.8 | 0.06 nM | 8.9 | 0.2 nM | Cc1c(N(C(=O)c2cc(-c3cc4c(cc3C(=O)N3Cc5ccccc5C[C@H]3CN3CCCC3)CN(C(=O)Cc3ccc(OCCN5CCOCC5)cc3F)CC4)n(C)c2C)c2ccc(O)cc2)cc(C#N)n1C [Example 100, N-(5-cyano-1,2-dimethylpyrrol-3-yl)-5-[2-(2-{2-fluoro-4-[2-(morpholin-4-yl)ethoxy]phenyl}acetyl)-7-{[(3S)-3-(pyrrolidin-1-ylmethyl)-3,4-dihydro-1H-isoquinolin-2-yl]carbonyl}-3,4-dihydro-1H-isoquinolin-6-yl]-N-(4-hydroxyphenyl)-1,2-dimethylpyrrole-3-carboxamide] | 0.0156 µM | 4.23 | 0.066 µM
0.03 nM | 1.1 nM | 35.5 | 0.09 nM | 6.5 | 0.2 nM | Cc1c(N(C(=O)c2cc(-c3cc4c(cc3C(=O)N3Cc5ccccc5C[C@H]3CN3CCCCC3)CN(C(=O)Cc3ccc(OCCN(C)CC5COC5)cc3F)CC4)n(C)c2C)c2ccc(O)cc2)cc(C#N)n1C [Example 103, N-(5-cyano-1,2-dimethyl-1H-pyrrol-3-yl)-5-(2-{2-[2-fluoro-4-(2-{methyl[(oxetan-3-yl)methyl]amino}ethoxy)phenyl]acetyl}-7-[(3S)-3-[(piperidin-1-yl)methyl]-1,2,3,4-tetrahydroisoquinoline-2-carbonyl]-1,2,3,4-tetrahydroisoquinolin-6-yl)-N-(4-hydroxyphenyl)-1,2-dimethyl-1H-pyrrole-3-carboxamide] | 0.006 µM | 6.66 | 0.0399 µM
0.07 nM | 2.6 nM | 40.0 | 0.17 nM | 5.8 | 0.4 nM | Cc1c(N(C(=O)c2cc(-c3cc4c(cc3C(=O)N3Cc5ccccc5C[C@H]3CN3CCCCC3)CN(C(=O)Cc3ccc(OCCN(C)CC5COC5)cc3)CC4)n(C)c2C)c2ccc(O)cc2)cc(C#N)n1C [Example 104, N-(5-cyano-1,2-dimethyl-1H-pyrrol-3-yl)-N-(4-hydroxyphenyl)-1,2-dimethyl-5-(2-{2-[4-(2-{methyl[(oxetan-3-yl)methyl]amino}ethoxy)phenyl]acetyl}-7-[(3S)-3-[(piperidin-1-yl)methyl]-1,2,3,4-tetrahydroisoquinoline-2-carbonyl]-1,2,3,4-tetrahydroisoquinolin-6-yl)-1H-pyrrole-3-carboxamide] | 0.0166 µM | 5.38 | 0.0893 µM
0.05 nM | 1.8 nM | 36.0 | 0.19 nM | 6.2 | 0.3 nM | Cc1c(N(C(=O)c2cc(-c3cc4c(cc3C(=O)N3Cc5ccccc5C[C@H]3CN3CCCCC3)CN(C(=O)Cc3ccc(OCCN(C)C5COC5)cc3)CC4)n(C)c2C)c2ccc(O)cc2)cc(C#N)n1C [Example 106, N-(5-cyano-1,2-dimethyl-1H-pyrrol-3-yl)-N-(4-hydroxyphenyl)-1,2-dimethyl-5-{2-[2-(4-{2-[methyl(oxetan-3-yl)amino]ethoxy}phenyl)acetyl]-7-[(3S)-3-[(piperidin-1-yl)methyl]-1,2,3,4-tetrahydroisoquinoline-2-carbonyl]-1,2,3,4-tetrahydroisoquinolin-6-yl}-1H-pyrrole-3-carboxamide] | 0.0107 µM | 4.53 | 0.0485 µM
